{"source": "patent US20110274624A1", "about": "“CONTRAST AGENTS IN POROUS PARTICLES” (WILLIAM MARSH RICE UNIVERSITY, priority 2010, published 2011)", "origin": "cited, not measured here", "note": "Read-outs that look alike come from different tables or passages of the source."}
{"smiles": "O=C([O-])CN(CCN(CC(=O)[O-])CC(=O)[O-])CCN(CC(=O)[O-])C(COCc1ccccc1)C(=O)[O-].[Gd+3]", "note": "(stereo not shown) [Gd-BOPTA]", "values": [{"measurement": "r1 per Gd^3+ ion", "setting": "1.41T", "value": "4.1 (1. 41T) mM^−1s^−1"}]}
{"smiles": "O=C([O-])CN1CCN(CC(=O)[O-])CCN(CC(=O)[O-])CCN(CC(=O)[O-])CC1.[Gd+3]", "note": "[Gd-DOTA]", "values": [{"measurement": "r1 per Gd^3+ ion", "setting": "1.41T", "value": "3.1 (1.41T) mM^−1s^−1"}]}
{"smiles": "CNC(=O)CN(CCN(CCN(CC(=O)[O-])CC(=O)NC)CC(=O)[O-])CC(=O)[O-].[Gd+3]", "note": "[Gd-DTPA-BMA]", "values": [{"measurement": "r1 per Gd^3+ ion", "setting": "1.41T", "value": "3.6 (1. 41T) mM^−1s^−1"}]}
{"smiles": "CC(O)CN1CCN(CC(=O)[O-])CCN(CC(=O)[O-])CCN(CC(=O)[O-])CC1.[Gd+3]", "note": "(stereo not shown) [Gd-HP-DO3A]", "values": [{"measurement": "r1 per Gd^3+ ion", "setting": "1.41T", "value": "3.2 (1. 41T) mM^−1s^−1"}]}
{"smiles": "[Gd+3]", "note": "[Gd^3+ ion]", "values": [{"measurement": "longitudinal relaxivity r1", "setting": "field not stated", "value": "~8", "unit": "mM⁻¹ s⁻¹"}]}
{"smiles": "O=C([O-])CN(CCN(CC(=O)[O-])CC(=O)[O-])CCN(CC(=O)[O-])CC(=O)[O-].[Gd+3]", "note": "[MAG, Gd-DTPA]", "values": [{"measurement": "r1 per Gd^3+ ion", "setting": "1.41T", "value": "3.4 (1.41T) mM^−1s^−1"}, {"measurement": "r1 per Gd^3+ ion", "setting": "1.5T", "value": "~4", "unit": "mM⁻¹ s⁻¹"}]}
